Laboratory results as given in US20120189673A1, “POLYPEPTIDES AND USES THEREOF” (priority 2009, published 2012).
Entries after “also recorded” stand apart in the source; their conditions may differ. Read-outs that look alike come from different tables or passages of the source.

Assays:
E. coli [1] = assay: Viable count analysis, E. coli; format: cell-based, Escherichia coli; conditions: for antibacterial activity (cfu) / bactericidal activity in presence of human plasma: 10 mM Tris; for antibacterial activity (cfu): pH 7.4 buffer, dose-response (FIG. 34C); for bactericidal activity in presence of human plasma: 0.15 M NaCl, pH 7.4 with 20% human citrate plasma, versus buffer; for bactericidal activity in heat-inactivated plasma: 20% heat-inactivated human citrate plasma
Experimental: Viable count analysis. E. coli ATCC 25922 bacteria were grown to mid-logarithmic phase in Todd-Hewitt (TH) medium. Bacteria were washed and diluted in 10 mM Tris, pH 7.4 containing 5 mM glucose. E. coli ATCC 25922 (50 μl; 2×10^6 cfu/ml) were incubated, at 37° C. for 2 h with peptides at the indicated concentrations. Other experiments with the TFPI-peptides and LL-37 were performed in 10 mM Tris, pH 7.4, containing also 0.15 M NaCl, with normal or heat inactivated 20% citrate-plasma (PP). Serial dilutions of the incubation mixture were plated on TH agar, followed by incubation at 37° C. overnight and cfu determination.
Viable count analysis—E. coli strains were grown to mid-logarithmic phase in Todd-Hewitt (TH). P. aeruginosa strains were grown in TH overnight. Bacteria were washed and diluted in 10 mM Tris, pH 7.4 containing 5 mM glucose. 2×10^6 cfu/ml bacteria were incubated in 50 μl, at 37° C. for 2 h with the C-terminal TFPI-derived peptides GGL27, TKR22, or LIK17 at the indicated concentrations. Additional experiments were performed in 10 mM Tris, pH 7.4, containing 0.15 M NaCl, either alone or with 20% normal or heat inactivated citrate-plasma. Serial dilutions of the incubation mixture were plated on TH agar, followed by incubation at 37° C. overnight and cfu determination.

E. coli [2] = assay: Bacterial membrane permeabilization, impermeant probe FITC (fluorescence microscopy); format: cell-based, Escherichia coli; conditions: 30 μM peptide
Experimental: Fluorescence microscopy. The impermeant probe FITC (Sigma-Aldrich, St. Louis, USA) was used for monitoring of bacterial membrane permeabilization. S. aureus ATCC 29213 bacteria were grown to mid-logarithmic phase in TSB medium. Bacteria were washed and resuspended in buffer (10 mM Tris, pH 7.4, 0.15M NaCl, 5 mM glucose) to yield a suspension of 1×10^7 CFU/ml. 100 μl of the bacterial suspension was incubated with 30 μM of the respective peptides at 30° C. for 30 min. Microorganisms were then immobilized on poly (L-lysine)-coated glass slides by incubation for 45 min at 30° C., followed by addition onto the slides of 200 μl of FITC (6 μg/ml) in buffer and a final incubation for 30 min at 30° C. […] Bacteria were visualized using a Nikon Eclipse TE300 (Nikon, Melville, USA) inverted fluorescence microscope equipped with a Hamamatsu C4742-95 cooled CCD camera (Hamamatsu, Bridgewater, USA) and a Plan Apochromat ×100 objective (Olympus, Orangeburg, USA). […]
Fluorescence microscopy—Fluorescein isothiocyanate (FITC; Sigma-Aldrich, St. Louis, USA) was used for monitoring of bacterial membrane permeabilization. […] Bacteria were visualized using a Nikon Eclipse TE300 (Nikon, Melville, USA) inverted fluorescence microscope equipped with a Hamamatsu C4742-95 cooled CCD camera (Hamamatsu, Bridgewater, USA) and a Plan Apochromat ×100 objective (Olympus, Orangeburg, USA). […]

[3] = system: intrinsic pathway of coagulation in normal human plasma; assay: Clotting assay: activated partial thromboplastin time (aPTT); format: biochemical
Experimental: Clotting assays. All clotting times were measured using an Amelung coagulometer. Activated partial thromboplastin time (aPTT) was measured by incubating the peptides diluted in sterile water at the indicated concentrations, with 100 μL citrated human plasma for 1 minute followed by the addition of 100 μL aPTT reagent (aPTT Automate, Diagnostica Stago) for 60 seconds at 37° C. Clotting was initiated by the addition of 100 μL of a 25-mM CaCl2 solution. In the prothombrin time assay (PT), clotting was initiated by the addition of 100 μL Thrombomax with calcium (PT reagent; Sigma-Aldrich). For measuring the thrombin clotting time (TCT), clotting was initiated by the addition of 100 μL Accuclot thrombin time reagent (TCT reagent; Sigma-Aldrich).

## LIKTKRKRKKQRVKIAY [LIK17]
E. coli [1]
  antibacterial activity (cfu): significant antibacterial activity
  bactericidal activity in presence of human plasma: significantly enhanced
  bactericidal activity in heat-inactivated plasma: abolished the potentiation
E. coli [2]
  permeabilization of bacterial membranes: permeabilized bacterial membranes
[3]
  activated partial thromboplastin time (aPTT): impair the intrinsic pathway of coagulation

## GGLIKTKRKRKKQRVKIAYEEIFVKNM [GGL27, C-terminal peptide of TFPI, plasmin-generated]
E. coli [1]
  antibacterial activity (cfu): significant antibacterial activity
  bactericidal activity in presence of human plasma: enhanced in human plasma; also recorded: significantly enhanced
  bactericidal activity in heat-inactivated plasma: largely abolished in heat-inactivated plasma; also recorded: abolished the potentiation
E. coli [2]
  permeabilization of bacterial membranes: permeabilized bacterial membranes
[3]
  activated partial thromboplastin time (aPTT): impair the intrinsic pathway of coagulation
[3]; listed as GGL-27
  activated partial thromboplastin time (aPTT): impairs coagulation in a dose dependent manner
